According to publication PMC11770318, “Isolation and characterization of a β-galactosidase from Lactobacillus helveticus for industrial processing” (JDS Communications, 2024):

Key:
[1] = target: T1, β-galactosidase (LacLM) from Lactobacillus helveticus OSU-PECh-4A (Lactobacillus helveticus, UniProt Q7WTB3+Q7WTB4); experiment: inhibition of oNPG hydrolysis; assay type: biochemical; details: end product; substrate oNPG; 50 mM sodium phosphate pH 7.0, 37°C; allosteric (authors' interpretation)
T1 construct: gene lacL; native, purified from Lb. helveticus OSU-PECh-4A by diafiltration and size-exclusion chromatography; GH2 heterodimer, 110 kDa (74 + 36 kDa subunits); 13 peptides identified by LC-MS; no tag
T1 sequence (Q7WTB4 whole entry): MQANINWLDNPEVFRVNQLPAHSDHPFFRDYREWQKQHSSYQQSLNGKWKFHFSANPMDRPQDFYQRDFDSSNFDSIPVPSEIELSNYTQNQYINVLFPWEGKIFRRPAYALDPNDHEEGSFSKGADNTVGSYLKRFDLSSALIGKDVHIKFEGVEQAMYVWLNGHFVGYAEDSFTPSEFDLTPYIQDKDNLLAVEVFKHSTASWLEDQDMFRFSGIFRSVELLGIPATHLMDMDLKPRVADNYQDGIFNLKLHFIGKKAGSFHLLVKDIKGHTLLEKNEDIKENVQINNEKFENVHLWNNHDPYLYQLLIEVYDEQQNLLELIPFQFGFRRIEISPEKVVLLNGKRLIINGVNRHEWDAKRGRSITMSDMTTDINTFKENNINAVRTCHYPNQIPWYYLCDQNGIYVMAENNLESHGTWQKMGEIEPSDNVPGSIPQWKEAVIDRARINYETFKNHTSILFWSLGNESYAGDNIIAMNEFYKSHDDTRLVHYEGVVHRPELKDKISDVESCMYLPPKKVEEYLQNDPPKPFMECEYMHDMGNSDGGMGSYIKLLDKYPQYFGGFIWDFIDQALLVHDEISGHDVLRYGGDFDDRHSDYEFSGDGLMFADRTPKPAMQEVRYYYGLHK
T1 sequence (Q7WTB3 whole entry): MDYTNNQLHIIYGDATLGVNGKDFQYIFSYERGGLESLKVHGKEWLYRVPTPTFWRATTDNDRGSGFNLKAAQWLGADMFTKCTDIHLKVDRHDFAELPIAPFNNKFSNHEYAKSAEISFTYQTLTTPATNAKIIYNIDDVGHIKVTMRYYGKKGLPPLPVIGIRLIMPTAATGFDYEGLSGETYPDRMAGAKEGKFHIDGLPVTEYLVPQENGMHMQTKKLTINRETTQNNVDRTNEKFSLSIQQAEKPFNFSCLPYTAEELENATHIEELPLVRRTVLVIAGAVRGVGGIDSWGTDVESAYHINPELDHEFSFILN

[2] = target: T1, β-galactosidase (LacLM) from Lactobacillus helveticus OSU-PECh-4A; experiment: inhibition of lactose hydrolysis; assay type: biochemical; details: end product; substrate lactose; 50 mM sodium phosphate pH 7.0, 37°C

Q: For `OC[C@H]1OC(O)[C@H](O)[C@@H](O)[C@@H]1O` (stereo partly drawn) [D-glucose], which “% decrease of activity below 50 mM” value [1] is on record?
A: Its value is 30%.

Q: Which “% loss of initial activity at 1 mM” value [2] does the source give for `OC[C@H]1OC(O)[C@H](O)[C@@H](O)[C@H]1O` (stereo partly drawn) [D-galactose] here?
A: Its value is 30%.
